Measurements reported in article PMC9831606, “Computational design of peptides to target NaV1.7 channel with high potency and selectivity for the treatment of pain” (eLife, 2022).

Assays:
[1] = test system: rats; details: cited from earlier work
[2] = test system: male and female rats; experiment: von Frey mechanical withdrawal threshold after oxaliplatin CIPN induction; type: in vivo, rat; details: after single i.p. oxaliplatin 6 mg/kg, 3 days; baseline 72.9±2.7 grams
Experimental: Chronic pain models: Chemotherapy induced neuropathy was induced in rats with oxaliplatin after i.t catheter placement recovery with a single i.p. dose of oxaliplatin 6 mg/kg. The animals were allowed to recover for 3 days and then were assessed in the open field assay to ensure motor function and with a von Frey assay to assess allodynia to verify their pain state. The von Frey assay with an electronic aesthesiometer quantified the average baseline for a group of male and female rats to be 72.9±2.7 grams for the mechanical withdrawal threshold after cannulation but before CIPN model induction which fell to 27.9±2.7 grams indicating allodynia. On the day of treatment rats were assessed for baseline measures and then treated and assayed for […] responses.

Row | SMILES | motor effect after intrathecal administration ([1]; 2.4 µg i.t., ref Schmalhofer et al., 2008) | maximum tolerated dose in rats ([1]; in 10 µL, intrathecal, ref Flinspach et al., 2017) [µg] | mechanical withdrawal threshold (von Frey, electronic aesthesiometer) [2] [grams]
1 | CSCC[C@@H]1NC(=O)CNC(=O)[C@H](CCC(=O)O)NC(=O)[C@@H]2CSSC[C@H](NC(=O)[C@@H](N)Cc3ccc(O)cc3)C(=O)N[C@@H](CCC(N)=O)C(=O)N[C@@H](CCCCN)C(=O)N[C@@H](Cc3c[nH]c4ccccc34)C(=O)N[C@@H](CCSC)C(=O)N[C@@H](Cc3c[nH]c4ccccc34)C(=O)N[C@@H]([C@@H](C)O)C(=O)N[C@H]3CSSC[C@H](NC(=O)[C@H](C(C)C)NC1=O)C(=O)N[C@@H](CCCNC(=N)N)C(=O)N[C@@H](CC(C)C)C(=O)N[C@@H](Cc1c[nH]c4ccccc14)C(=O)N[C@H](C(=O)N[C@@H](CCCCN)C(=O)N[C@@H](CCCCN)C(=O)N[C@@H](CCCCN)C(=O)N[C@@H](CC(C)C)C(=O)N[C@@H](Cc1c[nH]c4ccccc14)C(=O)O)CSSC[C@H](NC(=O)[C@H](CCCCN)NC(=O)[C@H](CCCNC(=N)N)NC(=O)[C@H](CCC(=O)O)NC(=O)[C@H](CO)NC(=O)[C@H](CC(=O)O)NC3=O)C(=O)N2 [WT ProTx-II] | laming effect | 2 | 
2 | O=C1[O][Pt]2([NH][C@@H]3CCCC[C@H]3[NH]2)[O]C1=O [oxaliplatin] |  |  | 27.9±2.7
